Here are results for 1 substance from patent US11779600B2, “Methods of treating or preventing alzheimer's disease and associated conditions” (CEDARS-SINAI MEDICAL CENTER, priority 2016, dated 2023).

In assay [1] the test system is ADtg mice. Briefly: Pre- and post-synaptic density in brains of AD+ mice after immune modulation. In kind it is in vivo, mouse. The following applies: 13m old AD+ mice (FIG. 3E). As for the experimental part: ADtg mice (10 months old) received subcutaneous injections of GA [also known as Cop-1 and Copaxone®; 100 μg in phosphate-buffered saline (PBS)] or PBS alone (control group) twice a week for 1 week and then once a week for 8 weeks. For evaluation of innate immune infiltration to the brain by flow cytometry, 10-month-old ADtg mice received subcutaneous injections of GA ([…]) or PBS alone twice a week for 1 week and then once a week for 3 weeks. At the end of the study, all mice were anaesthetized and then perfused with ice-cold PBS with 0.5 mM EDTA, after which their organs were collected and analyzed or fixed in 2.5% paraformaldehyde (Sigma-Aldrich), and cryoprotected with 30% sucrose for further histological analysis. […]
To define the synaptic area in the hippocampus of ADtg and non-transgenic (wild-type) mice, three independent coronal brain sections at bregma −2.50 , −2.65, and −2.80 mm (Liang et al., 2011) per animal (n=6 mice per group) were stained with the presynaptic marker VGluT1 (encoded by Slc17a7) (Chemicon, guinea pig, 1:6000). […] Single optical section images were analyzed using the NIH ImageJ macro and batch process to quantify the synaptic area (15 optical sections/field, 15 fields/brain section, and 675 total images/brain). The average synaptic area or percentage of the area per image was calculated for each condition. […]

For assay [2], the system named is MΦ^BM. Briefly: Macrophage cell length measurement. The following applies: GA treatment (FIG. 16A-16B). The format is cell-based, mouse. As for the experimental part: A set of three Stealth OPN siRNAs made up of 25-bp duplex oligoribonucleotides each were used with sequences corresponding to the sense and antisense strands of OPN (Invitrogen). Equal amounts (100 nM each) of siRNAs were mixed and diluted in OptiMEM (Gibco) to finalconcentration of 100nmol/L, then transiently transfected into MΦ^BM using Lipofectamine® RNAiMAX Transfection Reagent (Invitrogen), per manufacturer's protocol. Control macrophages were transfected with Stealth RNAi™ siRNA Negative Control. MΦ^BM were incubated for 48 hours after transfection, and were used for subsequent experiments.
The long and short axes of cells were manually measured in μm from microscopic images (McWhorter et al., Proceedings of the National Academy of Sciences of the U.S. Pat. No. 2,013,110:17253-17258) using length tools in the Axiovision Rel. 4.8 software package. At least 100 cells were examined in each experiment where individual cells were assayed by microscopy.
Macrophages can acquire distinct phenotypes and biological functions depending on their microenvironment. Past studies reported that OPN promotes macrophages to switch to the anti-inflammatory M2 phenotype. The possible role of OPN in macrophage polarization towards an anti-inflammatory phenotype, which has been associated with elongated cell shape was explored. […]

Regarding glatiramer acetate [GA], in assay [1], the “synaptic rescue (pre- and post-synaptic areas)” value is listed as “remarkable synaptic rescue”. In assay [2], the cell length increase came to 1.3 fold.
